Assay [1] deals with TNFα-induced NFκB reporter activity in CDK8/19 dKO 293 cells. The experiment in a line: NFκB-dependent luciferase reporter cell-based assay in CDK8/19 dKO 293 cells. More on the design: species or system human. Particulars: for IC50: Homo sapiens, read-out: NFkB activity Assay IC50; for effect on reporter induction in dKO cells: 293-dKO-NFκB-Luc cells. The method, then:
(§1) The lentiviral construct pHAGE-NFkB-TA-LUC-UBC-dTomato was generated by Darrell Kotton […] Parental WT 293 cells or CDK8/19 dKO 293 cells were transduced with the lentivirus and dTomato-positive cells were sorted out using FACS Aria III. Single-cell clones were expanded and tested for luciferase reporter activities under TNFα- and/or senexin B-treated and untreated conditions with Bright-Glo Luciferase Assay System (Promega, Madison, WI, USA).
(§2) On day 1, cells were seeded in polyethyleneimine-coated 96-well plates at the density of 5 × 10^4 cells per well. […] Chemiluminescence intensity of each well was measured with ChemiDoc Touch™ (Bio-Rad) and quantified using ImageLab software (Bio-Rad). The raw data were then further processed with GraphPad Prism 7.0 (GraphPad Software, San Diego, CA, USA) for curve-fitting and IC50 calculation.
A general note: Reporter assays use an easily measured gene product as a stand-in for the process of interest.

Assay [2] deals with TNFα-induced NFκB reporter activity in WT 293 cells (CDK8/19 inhibition). The experiment in a line: NFκB-dependent luciferase reporter cell-based assay in WT 293 cells. Details: species or system human. Particulars: for extent of inhibition of NFκB-dependent promoter activation: WT cells. The method, then:
as §1, §2

Assay [3] concerns alkaline phosphatase (ALPase) activity in ST2 cells. Details: method as in PMID 23453217. Particulars: concentration enhancing ALPase activity to 200% of the control; cited from earlier work.
The subject of assay [4] is CXCL1 mRNA expression. The experiment in a line: QPCR of TNFα-induced CXCL1 mRNA in 293 cells and CDK8/19 knockout derivatives. The class given is cell-based, human. Particulars: dKO 293 cells; 1 μM senexin B. The procedure: (§3) Cells were seeded in 12-well plates at density of 3 × 10^5 cells per well in regular culture media 24 h before treatment. Cells were first pre-treated with 1 μM senexin B or solvent control DMSO (0.1%) for 1 h and then treated with or without 10 ng/mL TNF-α for 2 h. Total RNA was extracted using RNAeasy Mini Kit (Qiagen, Germantown, MD, USA) and 1 µg of total RNA was used to generate cDNA using iScript cDNA synthesis kit (Bio-Rad). Gene expression was quantified using iTaq Universal SYBR green super mix on the CFX384 Real time system (Bio-Rad). The primers used for real-time PCR were: CXCL1-F, […]; CXCL1-R, […]; IL8-F, […]; IL8-R, […]; RPL13A-F, […] and RPL13A-R, […].

For assay [5], the system named is IL8 mRNA expression. The assay can be described thus: QPCR of TNFα-induced IL8 mRNA in 293 cells and CDK8/19 knockout derivatives. The class given is cell-based, human. Particulars: dKO 293 cells; 1 μM senexin B. The method, then:
as §3

[6] abbreviates: HEK293, 293-dKO-NFKB-LUC#2, 10 ng/mL TNFα 3 h.
The mark [7] stands for this setting: Homo sapiens, HEK293, 3 h, 293-WT-NFKB-LUC#8, 10 ng/mL TNFα 3 h, read-out: NFkB activity Assay IC50.
Setting [8] is: 293-WT-NFKB-LUC#8, 10 ng/mL TNFα 3 h, read-out: NFkB activity Assay IC50.

Where two headings read alike, the source gives them in different places. A value given as a limit tells only on which side of the number the result lay.

As usually defined, the IC50 is the concentration that gives 50% inhibition.

For the compound `CC(=O)c1c(C)c2cnc(Nc3ccc(N4CCNCC4)cn3)nc2n(C2CCCC2)c1=O` [Palbociclib, palbociclib], the IC50 in assay [1] (setting [6]) and in assay [2] (setting [7]) was > 2000 nM throughout. Also, the “extent of inhibition of NFκB-dependent promoter activation” value in assay [1] (dKO cells, 10 ng/mL TNFα 3 h) was “only weak inhibitory effects at high concentrations”; in assay [2] (10 ng/mL TNFα 3 h), “only weak inhibitory effects at high concentrations”.

Take `Cc1ccc(N2CCCN(c3ccnc4sc(C(N)=O)c(N)c34)CC2)cc1` [15n]: the “ALP activity Assay EC200” value in assay [3] is recorded as 115.4 nM. In addition, in assay [2] (setting [7]), the IC50 was found to be 43.1 nM.

On to `CN(C)C(=O)c1ccc(N2CCCN(c3ccnc4sc(C(N)=O)c(N)c34)CC2)cc1` [15u], for which, in assay [1] (10 ng/mL TNFα 3 h), the “effect on reporter induction in dKO cells” value (“effect on reporter induction” below) is recorded as “none of them showed any activity”. Also, the IC50 in assay [1] (setting [6]) was > 1000 nM; in assay [2] (setting [8]) it was 10 nM; in assay [2] (setting [7]), 10.3 nM. The “ALP activity Assay EC200” value in assay [3] is on record as 31.9 nM.

Regarding `CC(C)C[C@H](NC(=O)[C@H](Cc1ccccc1)NC(=O)c1cnccn1)B(O)O` [Bortezomib, bortezomib], the IC50 was 173 nM in assay [1] (setting [6]) and 311 nM in assay [2] (setting [7]).

Take `CN(C)C1CC23CCC4(O2)C(=CCC2(C)C(c5ccc6ccncc6c5)=CCC24)C=C3C(O)C1O` (centres unmarked) [dCA, didehydro-cortistatin A]: the “effect on reporter induction” value in assay [1] (10 ng/mL TNFα 3 h) is “no effect”. For the same compound, the IC50 in assay [1] (HEK293, 3 h) is > 1000 nM; in assay [2] (Homo sapiens, HEK293, 3 h, read-out: NFkB activity Assay IC50) it was 1.3 nM. Moreover, the “maximal (plateau) inhibition of TNFα-induced reporter induction” value in assay [2] (WT reporter cells, 10 ng/mL TNFα 3 h) is reported as ~ 80%.

`CN1CCN(C(=O)c2ccc3cc(CCNc4ncnc5ccc(C#N)cc45)ccc3c2)CC1` [senexin B]: the IC50 in assay [1] (setting [6]) was > 1000 nM; in assay [2] (setting [7]) it was 114 nM; in assay [2] (Homo sapiens, HEK293, 3 h, clone WT-#1, 10 ng/mL TNFα 3 h, read-out: IC50 for inhibition of TNFα-induced luciferase expression), 95 nM; in assay [2] (Homo sapiens, HEK293, 3 h, clone WT-#2, 10 ng/mL TNFα 3 h, read-out: IC50 for inhibition of TNFα-induced luciferase expression) it was 135 nM; in assay [2] (Homo sapiens, HEK293, 3 h, clone WT-#9, 10 ng/mL TNFα 3 h, read-out: IC50 for inhibition of TNFα-induced luciferase expression) it was 187 nM. The “inhibition of TNFα-induced luciferase induction” value in assay [1] (dKO cells, 1 μM senexin B, 10 ng/mL TNFα) is “not in dKO cells”. Besides, in assay [4], the “inhibitory effect on TNFα induction of CXCL1” value is “completely abolished”. Moreover, the “inhibitory effect on TNFα induction of IL8” value in assay [5] is reported as “completely abolished”. The “inhibition of TNFα-induced luciferase expression” value in assay [2] (all the WT clones, 1 μM senexin B) was 70–80%.

As for `CNC(=O)c1ccc(N2CCCN(c3ccnc4sc(C(N)=O)c(N)c34)CC2)cc1` [15v], the “ALP activity Assay EC200” value in assay [3] is listed as 54.2 nM. In assay [2] (setting [7]), the 50% inhibitory concentration (IC50) worked out at 23.1 nM.

Turning to `COc1ccc(N2CCCN(c3ccnc4sc(C(N)=O)c(N)c34)CC2)cc1` [15q], the “ALP activity Assay EC200” value in assay [3] is recorded as 88.1 nM. For the same compound, the IC50 in assay [2] (setting [7]) is 37.8 nM.

For the compound `Cc1ccc(S(=O)(=O)N[C@@H](Cc2ccccc2)C(=O)CCl)cc1` [TPCK, tosyl-L-phenylalanyl-chloromethane ketone], the IC50 was found to be 12000 nM in assay [1] (setting [6]) and 13000 nM in assay [2] (setting [7]). In addition, the “extent of inhibition of NFκB-dependent promoter activation” value in assay [1] (dKO cells, 10 ng/mL TNFα 3 h) was “complete suppression”; in assay [2] (10 ng/mL TNFα 3 h), “complete suppression”.

As to `CN(C)C(=O)Cc1ccc(N2CCCN(c3ccnc4sc(C(N)=O)c(N)c34)CC2)cc1` [15w], in assay [1] (10 ng/mL TNFα 3 h), the “effect on reporter induction” value is listed as “none of them showed any activity”. Also, the IC50 is > 1000 nM in assay [1] (setting [6]), 4 nM in assay [2] (setting [8]) and 4.1 nM in assay [2] (setting [7]). In addition, the “ALP activity Assay EC200” value in assay [3] is reported as 6.6 nM.

Take `CCc1cnn2c(NCc3ccc[n+]([O-])c3)cc(N3CCCC[C@H]3CCO)nc12` [Dinaciclib]: the “extent of inhibition of NFκB-dependent promoter activation” value is listed as “completely inhibited” in assay [1] (dKO cells, 10 ng/mL TNFα 3 h) and “completely inhibited” in assay [2] (10 ng/mL TNFα 3 h).

For `CN1CC[C@H](c2c(O)cc(O)c3c(=O)cc(-c4ccccc4Cl)oc23)[C@H](O)C1` [Flavopiridol], the IC50 in assay [1] (setting [6]) was 26 nM; in assay [2] (setting [7]), 34 nM. Further, the “extent of inhibition of NFκB-dependent promoter activation” value is “completely inhibited” in assay [1] (dKO cells, 10 ng/mL TNFα 3 h) and “completely inhibited” in assay [2] (10 ng/mL TNFα 3 h).

As for `CN(C)C/C=C/C(=O)Nc1ccc(C(=O)Nc2cccc(Nc3ncc(Cl)c(-c4c[nH]c5ccccc45)n3)c2)cc1` [THZ1], the IC50 was found to be 352 nM in assay [1] (setting [6]) and 220 nM in assay [2] (setting [7]). Besides, the “extent of inhibition of NFκB-dependent promoter activation” value is listed as “completely inhibited” in assay [1] (dKO cells, 10 ng/mL TNFα 3 h) and “completely inhibited” in assay [2] (10 ng/mL TNFα 3 h).

With `NC(=O)c1sc2nccc(N3CCCN(c4ccccc4)CC3)c2c1N` [15k], the “effect on reporter induction” value in assay [1] (10 ng/mL TNFα 3 h) is “none of them showed any activity”.

The values are drawn from PMC6830309, “Characterizing CDK8/19 Inhibitors through a NFκB-Dependent Cell-Based Assay” (Cells, 2019).
